Literature values, collected in patent US9555113B2, “Compositions with a rheological modifier to reduce dissolution variability” (Durect Corporation, priority 2013, dated 2017).
Where two headings read alike, the source gives them in different places.

Substance: Sucrose Acetate Isobutyrate [SAIB]
- viscosity (pure SAIB at 80° C.): approximately 600 cP
- viscosity (pure SAIB at ambient temperature (RT)): approximately 2,000,000 cP
